This is an account of results in patent US20170355708A1, “POTASSIUM CHANNEL MODULATORS” (Cadent Therapeutics, Inc., priority 2016, published 2017).

The first test deals with T1, hSK2 channels (Homo sapiens, UniProt P0DP23+Q9H2S1).
T1 construct: expressed in transfected cells; host or cells: HEK293
In words: Whole-cell patch-clamp recording of SK2 channel current (SC100). The format is cell-based. Conditions: Stimulating Concentration required for increasing the baseline current by 100%; HEK293 cells expressing hSK2; Table 3. Here is the method:
The biological activity of certain compounds were determined as follows. The ionic current through small-conductance Ca^2+-activated K^+ channels (SK channels, subtype 2) is recorded using the whole-cell configuration of the patch-clamp technique in a classic patch-clamp set-up using HEK293 tissue culture cells expressing hSK2 channels as described in Kasumu et. al., Chemistry & Biology 19, 1340-1353, Oct. 26, 2012.
The SC100 value determined is defined as the Stimulating Concentration required for increasing the baseline current by 100%.
Background: The patch-clamp technique gives a direct electrical read-out from membranes.
In the case of `Cc1cc(C)n(-c2cc(N3CC4(COC4)C3)nc(Nc3ccc(F)c(F)c3)n2)n1` [Compound 108, N-(3,4-difluorophenyl)-4-(3,5-dimethyl-1H-pyrazol-1-yl)-6-(2-oxa-6-azaspiro[3.3]heptan-6-yl)pyrimidin-2-amine], the “SC100 uM” value is “++ (++ means 200 nM-1000 nM)”. In the case of `CC(=O)N1CCN(c2cc(Nc3ccc(F)cc3)nc(-n3nc(C)cc3C)n2)CC1` [Compound 102, 1-(4-(2-(3,5-dimethyl-1H-pyrazol-1-yl)-6-((4-fluorophenyl)amino)pyrimidin-4-yl)piperazin-1-yl)ethan-1-one], the “SC100 uM” value was “++ (++ means 200 nM-1000 nM)”. On to `Cc1cc(C)n(Cc2cc(Nc3ccc(F)cc3)nc(-n3ccc(CF)n3)c2)n1` [Compound 170, 4-((3,5-dimethyl-1H-pyrazol-1-yl)methyl)-6-(3-(fluoromethyl)-1H-pyrazol-1-yl)-N-(4-fluorophenyl)pyridin-2-amine], for which the “SC100 uM” value is listed as “++ (++ means 200 nM-1000 nM)”. For the compound `Fc1ccc(Nc2cc(N3CCOCC3)nc(-n3ccc(C(F)F)n3)n2)cc1` [Compound 158, 2-(3-(difluoromethyl)-1H-pyrazol-1-yl)-N-(4-fluorophenyl)-6-morpholinopyrimidin-4-amine], the “SC100 uM” value was “+++ (+++ means <200 nM)”. With `Cc1cc(C)n(-c2nc(Nc3ccc(Cl)cc3)cc(N[C@H](C)C(N)=O)n2)n1` (single isomer, unassigned) [Compound 123, (+)-2-((6-((4-chlorophenyl)amino)-2-(3,5-dimethyl-1H-pyrazol-1-yl)pyrimidin-4-yl)amino)propanamide], the “SC100 uM” value is recorded as “++ (++ means 200 nM-1000 nM)”. Consider `Cc1cc(C)n(-c2cc(N3CCNC(C(N)=O)C3)nc(Nc3ccc(F)c(F)c3)n2)n1` (stereo not shown) [Compound 116, 4-(2-((3,4-difluorophenyl)amino)-6-(3,5-dimethyl-1H-pyrazol-1-yl)pyrimidin-4-yl)piperazine-2-carboxamide], for which the “SC100 uM” value is reported as “+++ (+++ means <200 nM)”. As to `Cc1cc(C)n(-c2nc(Nc3ccc(F)c(F)c3)cc(N3CCO[C@@H](CO)C3)n2)n1` (single isomer, unassigned) [Compound 121, (+)-(4-(6-((3,4-difluorophenyl)amino)-2-(3,5-dimethyl-1H-pyrazol-1-yl)pyrimidin-4-yl)morpholin-2-yl) methanol], the “SC100 uM” value is given as “+++ (+++ means <200 nM)”. On to `Cc1cc(C)n(-c2cc(N3CC4(COC4)C3)nc(Nc3ccc(F)cc3F)n2)n1` [Compound 107, N-(2,4-difluorophenyl)-4-(3,5-dimethyl-1H-pyrazol-1-yl)-6-(2-oxa-6-azaspiro[3.3]heptan-6-yl)pyrimidin-2-amine], for which the “SC100 uM” value is “+ (+ means >1 uM)”. Consider `CC(=O)N1CCN(c2cc(-n3nc(C)cc3C)nc(Nc3ccc(F)cc3F)n2)CC1` [Compound 104, 1-(4-(2-((2,4-difluorophenyl)amino)-6-(3,5-dimethyl-1H-pyrazol-1-yl)pyrimidin-4-yl)piperazin-1-yl)ethan-1-one], for which the “SC100 uM” value is on record as “++ (++ means 200 nM-1000 nM)”. Take `N#Cc1ccn(-c2nc(Nc3ccc(Cl)cc3)cc(N3CC4(COC4)C3)n2)n1` [Compound 143, 1-(4-((4-chlorophenyl)amino)-6-(2-oxa-6-azaspiro[3.3]heptan-6-yl)pyrimidin-2-yl)-1h-pyrazole-3-carbonitrile]: the “SC100 uM” value is reported as “++ (++ means 200 nM-1000 nM)”. On the same count and under the same terms, the same measure for `CC(O)c1ccn(-c2nc(Nc3ccc(F)cc3)cc(N3CCOCC3)n2)n1` (stereo not shown) [Compound 146, 1-(1-(4-((4-fluorophenyl)amino)-6-morpholinopyrimidin-2-yl)-1H-pyrazol-3-yl)ethan-1-ol]: “+ (+ means >1 uM)”; for `Cc1cc(C)n(-c2cc(N3CCOC(C(N)=O)C3)nc(Nc3ccc(F)c(F)c3)n2)n1` (racemic) [Compound 129, 4-(2-((3,4-difluorophenyl)amino)-6-(3,5-dimethyl-1H-pyrazol-1-yl)pyrimidin-4-yl)morpholine-2-carboxamide]: “+++ (+++ means <200 nM)”. On the same count and under the same terms, the same measure for `FCc1ccn(-c2nc(Nc3ccc(F)cc3)cc(OC3COC3)n2)n1` [Compound 162, 2-(3-(fluoromethyl)-1H-pyrazol-1-yl)-N-(4-fluorophenyl)-6-(oxetan-3-yloxy)pyrimidin-4-amine]: “++ (++ means 200 nM-1000 nM)”. Turning to `Cc1cc(C)n(-c2nc(Nc3ccc(F)c(F)c3)cc(N3CCO[C@H](CO)C3)n2)n1` (single isomer, unassigned) [Compound 122, (−)-(4-(6-((3,4-difluorophenyl)amino)-2-(3,5-dimethyl-1H-pyrazol-1-yl)pyrimidin-4-yl)morpholin-2-yl)methanol], the “SC100 uM” value is “++ (++ means 200 nM-1000 nM)”. Turning to `CC(=O)NCc1cc(Nc2ccc(F)cc2)nc(-n2cc(C)c(CO)n2)c1` [Compound 166, N-((2-((4-fluorophenyl)amino)-6-(3-(hydroxymethyl)-4-methyl-1H-pyrazol-1-yl)pyridin-4-yl)methyl)acetamide], the “SC100 uM” value is given as “+ (+ means >1 uM)”.

Consider `Cc1cc(Nc2ccc(Cl)cc2)nc(-n2ccc(C(C)(C)O)n2)n1` [Compound 142, 2-(1-(4-((4-chlorophenyl)amino)-6-methylpyrimidin-2-yl)-1H-pyrazol-3-yl)propan-2-ol], for which the “SC100 uM” value is listed as “++ (++ means 200 nM-1000 nM)”. Consider `CC(=O)NCc1cc(Nc2ccc(Cl)cc2)nc(-n2ccc(CF)n2)c1` [Compound 164, N-((2-((4-chlorophenyl)amino)-6-(3-(fluoromethyl)-1H-pyrazol-1-yl)pyridin-4-yl)methyl)acetamide], for which the “SC100 uM” value is given as “+++ (+++ means <200 nM)”. Take `Cc1cc(C)n(-c2nc(Nc3ccc(F)cc3F)cc(N3CCN[C@H](C(N)=O)C3)n2)n1` (single isomer, unassigned) [Compound 128, (+)-4-(6-((2,4-difluorophenyl)amino)-2-(3,5-dimethyl-1H-pyrazol-1-yl)pyrimidin-4-yl)piperazine-2-carboxamide]: the “SC100 uM” value is “+ (+ means >1 uM)”. On the same count and under the same terms, the same measure for `CC(O)c1ccn(-c2nc(Nc3ccc(Cl)cc3)cc(N3CC4(COC4)C3)n2)n1` (stereo not shown) [Compound 150, 1-(1-(4-((4-chlorophenyl)amino)-6-(2-oxa-6-azaspiro[3.3]heptan-6-yl)pyrimidin-2-yl)-1H-pyrazol-3-yl)ethan-1-ol]: “++ (++ means 200 nM-1000 nM)”. As for `CC(C)(O)c1ccn(-c2nc(Nc3ccc(Cl)cc3)cc(N3CC4(COC4)C3)n2)n1` [Compound 147, 2-(1-(4-((4-chlorophenyl)amino)-6-(2-oxa-6-azaspiro [3.3]heptan-6-yl)pyrimidin-2-yl)-1H-pyrazol-3-yl)propan-2-ol], the “SC100 uM” value is on record as “++ (++ means 200 nM-1000 nM)”. Consider `Cc1cc(C)n(-c2nc(Nc3ccc(F)c(F)c3)cc(N3CCOC(C(N)=O)C3)n2)n1` (stereo not shown) [Compound 127, 4-(6-((3,4-difluorophenyl)amino)-2-(3,5-dimethyl-1H-pyrazol-1-yl)pyrimidin-4-yl)morpholine-2-carboxamide], for which the “SC100 uM” value is reported as “+ (+ means >1 uM)”.

Staying with this test, now noted: Stimulating Concentration required for increasing the baseline current by 100%; HEK293 cells expressing hSK2; Table 4.
Take `Cc1cccc(-c2nc(Nc3ccc(F)cc3)cc(N3CCOCC3)n2)n1` [NSSy6907, N-(4-fluorophenyl)-2-(6-methylpyridin-2-yl)-6-morpholinopyrimidin-4-amine]: the “SC100 (μM)” value is recorded as “++ (++ means 200 nM-1000 nM)”. On to `CC(=O)c1cc(Nc2cccc(C(F)(F)F)c2)nc(-n2ccc(C)n2)n1` [IN10876-038-P1], for which the “SC100 (μM)” value is listed as “+ (+ means >1 uM)”. As to `Cc1ccn(-c2cc(CN3CCCC3=O)cc(Nc3ccc(Cl)cc3)n2)n1` [NSSy5701, 1-((2-((4-chlorophenyl)amino)-6-(3-methyl-1H-pyrazol-1-yl)pyridin-4-yl)methyl) pyrrolidin-2-one], the “SC100 (μM)” value is given as “+++ (+++ means <200 nM)”. Take `Cc1cc(Nc2ccc(F)cc2)nc(-c2ccccn2)n1` [IN11121-037-P1, N-(4-fluorophenyl)-6-methyl-2-(pyridin-2-yl)pyrimidin-4-amine]: the “SC100 (μM)” value is on record as “+ (+ means >1 uM)”. `Cc1ccn(-c2nc(Nc3ccccc3Cl)cc(C(C)O)n2)n1` (stereo not shown) [IN10881-055-P1]: the “SC100 (μM)” value was “++ (++ means 200 nM-1000 nM)”. `Cc1cccc(-c2nccc(Nc3ccc(F)cc3)n2)n1` [IN11130-036-P1]: the “SC100 (μM)” value is on record as “+ (+ means >1 uM)”. Consider `Cc1cc(Nc2ccc(F)cc2)nc(-c2nc(C)ccc2C)n1` [IN11237-001-P1, 2-(3,6-dimethylpyridin-2-yl)-N-(4-fluorophenyl)-6-methylpyrimidin-4-amine], for which the “SC100 (μM)” value is recorded as “+ (+ means >1 uM)”. With `Cc1cc(Nc2ccc(F)cc2)nc(-n2ccc(C3CC3)n2)n1` [NSSy6921, 2-(3-cyclopropyl-1H-pyrazol-1-yl)-N-(4-fluorophenyl)-6-methylpyrimidin-4-amine], the “SC100 (μM)” value was “+ (+ means >1 uM)”. On the same count and under the same terms, the same measure for `Cc1ccn(-c2nc(Nc3c(C)cccc3Cl)cc(C(C)O)n2)n1` (stereo not shown) [IN10864-081-P1]: “+ (+ means >1 uM)”. For `Cc1cc(Nc2ccc(F)cc2)nc(-c2ccc(C)[nH]2)n1` [IN11196-053-P1, N-(4-fluorophenyl)-6-methyl-2-(5-methyl-1H-pyrrol-2-yl)pyrimidin-4-amine], the “SC100 (μM)” value is reported as “+ (+ means >1 uM)”.

Consider `COc1cc(Nc2ccc(F)cc2F)nc(-c2nc(C)cs2)n1` [IN11059-023-P1], for which the “SC100 (μM)” value is on record as “++ (++ means 200 nM-1000 nM)”. As to `Cc1csc(-c2nc(Nc3ccc(F)cc3)cc(C(C)O)n2)n1` (stereo not shown) [IN10880-091-P1, 1-(6-((4-fluorophenyl)amino)-2-(4-methylthiazol-2-yl)pyrimidin-4-yl)ethan-1-ol], the “SC100 (μM)” value is “++ (++ means 200 nM-1000 nM)”. Consider `COC(C)c1cc(Nc2ccc(F)cc2F)nc(-c2nc(C)cs2)n1` (stereo not shown) [IN11059-067-P1, N-(2,4-difluorophenyl)-6-(1-methoxyethyl)-2-(4-methylthiazol-2-yl) pyrimidin-4-amine], for which the “SC100 (μM)” value is given as “+ (+ means >1 uM)”.
